Laboratory results reported in paper PMC3714338 (Analytical biochemistry, 2013).

Target: Mtb APR (adenosine 5′-phosphosulfate reductase; also MtbAPSR) (Mycobacterium tuberculosis, UniProt P9WIK3)
Assay: biochemical

Mtb APR (adenosine 5′-phosphosulfate reductase; also MtbAPSR), sequence (P9WIK3 whole entry, looked up): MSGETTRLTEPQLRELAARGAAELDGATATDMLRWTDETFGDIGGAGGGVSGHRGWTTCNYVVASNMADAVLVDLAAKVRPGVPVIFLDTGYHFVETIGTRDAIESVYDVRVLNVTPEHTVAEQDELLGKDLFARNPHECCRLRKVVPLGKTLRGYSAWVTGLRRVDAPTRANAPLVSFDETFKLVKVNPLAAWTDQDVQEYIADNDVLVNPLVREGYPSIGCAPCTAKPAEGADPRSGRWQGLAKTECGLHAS

Nc1ncnc2c1ncn2[C@@H]1O[C@H](COP(=O)(O)OP(=O)(O)O)[C@@H](O)[C@H]1O [ADP]
Ki: 83 ± 0.2 µM
